{"source": "patent US12528837B2", "about": "“Aryl substituted polymyxin derivatives” (priority 2018, dated 2026)", "key": {"[1]": {"test_system": "HK-2 cells", "test": "In vitro renal cell toxicity assay (HK-2)", "assay_type": "cell-based", "outline": "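HK-2 cells seeded 7,500/well, adhered overnight, then exposed to compound for 24 h at 37° C, 5% CO2, with 5% water and 0.5% DMSO. Background-subtracted, vehicle-normalised dose-response fitted with bottom fixed at zero; IC50 reported relative to PMB in the same run, median where repeated.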"}, "[2]": {"test": "Kidney drug level after subcutaneous dose in mouse", "assay_type": "in vivo", "details": "mouse, in vivo, sc, 17.2 mg/kg", "outline": "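Mice were euthanised four hours after subcutaneous dosing. Both kidneys were trimmed, weighed, snap-frozen, then homogenised with zirconium oxide beads. After centrifugation (13,000 rpm, 6 °C, 10 min), supernatants were analysed by LC-MS-MS.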"}, "[3]": {"test": "Renal toxicity in mice, 25 mg/kg sc four doses at 8 hr intervals, biomarkers and histopathology", "assay_type": "in vivo, mouse", "details": "mice (n=6), sc 25 mg free base/kg", "description": "After the fourth dose animals were transferred into individual metabolic cages and urine collected for 24 hours for determination of urinary biomarkers. After collecting urine mice were euthanised and the kidneys harvested for histopathology."}, "[4]": {"test": "Renal toxicity in Cynomolgus monkey, iv infusion 7 days", "assay_type": "in vivo", "description": "In a separate experiment male monkeys (n=3) were dosed with PMB for the same period at 4 mg/kg/dose. In both experiments control animals were dosed 3 times per day with saline.\nAt the end of the 7 day period blood was sampled and the serum levels of blood urea nitrogen and creatinine determined as indicators of renal damage.\nKidneys were harvested at the end of the 7 day dosing period and examined microscopically."}, "[5]": {"test_system": "A. baumannii NCTC13301", "test": "Neutropenic murine thigh model", "assay_type": "in vivo", "details": "CD-1 mice thigh, IV 0.5 mg/kg at 2, 6, 10 h, counts at 16 h, PMB in parentheses, listed as PMB", "description": "After rendering neutropenic (cyclophosphamide 150 mg/kg d-4, 100 mg/kg d-1), CD-1 mice (n=5) were inoculated in each thigh with approx. 10^5 cfu of A. baumannii NCTC13301. […] At 16 h post-infection mice were euthanised and thighs prepared for colony counts.\n(§1) In each case the decrease observed with PMB in the same experiment is shown in parentheses: […]"}, "[6]": {"test_system": "A. baumannii NCTC13301", "test": "Neutropenic murine lung model", "assay_type": "in vivo", "description": "After rendering neutropenic (cyclophosphamide 200 mg/kg d-4, 150 mg/kg d-1), CD-1 mice (n=8) were inoculated intranasally with approx. 10^7 cfu per lung of A. baumannii NCTC13301. Mice were dosed SC with PMB sulphate (20 mg/kg) or appropriate doses of test compound (equivalent weight free base) at 2, 6 and 10 h post-infection. At 16 h post-infection mice were euthanised and lungs prepared for colony counts.\nas §1"}, "[7]": {"test_system": "P. aeruginosa ATCC 27853", "test": "Neutropenic murine lung model", "assay_type": "in vivo", "details": "CD-1 mice lung, counts at 16 h, PMB in parentheses", "description": "After rendering neutropenic (cyclophosphamide 200 mg/kg d-4, 150 mg/kg d-1). CD-1 mice (n=8) were inoculated intranasally with 10^4-10^5 cfu per lung of P. aeruginosa ATCC27853. Mice were dosed SC with appropriate doses of PMB sulphate or test compound (equivalent weight free base) at 2, 6 and 10 h post-infection. At 16 h post-infection mice were euthanised and lungs prepared for colony counts.\nas §1"}, "[8]": {"test_system": "A. baumannii IHMA 517303", "assay_type": "cell-based", "details": "alone", "description": "(§2) MIC values (μg/mL) were determined by broth microdilution under CLSI conditions."}, "[9]": {"test_system": "A. baumannii IHMA 851735 (OXA-23)", "assay_type": "cell-based", "details": "OXA-23; alone", "description": "as §2"}, "[10]": {"test_system": "A. baumannii NCTC 13301 (OXA-23)", "assay_type": "cell-based", "details": "OXA-23; alone", "description": "as §2"}, "[11]": {"test_system": "E. coli CDF-1 (MCR-1)", "assay_type": "cell-based", "details": "MCR-1; alone", "description": "as §2"}, "[12]": {"test_system": "E. coli IHMA 940398", "assay_type": "cell-based", "details": "alone", "description": "as §2"}, "[13]": {"test_system": "K. pneumoniae IHMA 520329 (SHV-12, KPC-2)", "assay_type": "cell-based", "details": "SHV-12, KPC-2; alone", "description": "as §2"}, "[14]": {"test_system": "K. pneumoniae IHMA 580884", "assay_type": "cell-based", "details": "alone", "description": "as §2"}, "[15]": {"test_system": "P. aeruginosa ATCC 27853", "assay_type": "cell-based", "details": "alone", "description": "as §2"}, "[16]": {"test_system": "P. aeruginosa IHMA 517175", "assay_type": "cell-based", "details": "alone", "description": "as §2"}, "[17]": {"test_system": "P. aeruginosa IHMA 644636", "assay_type": "cell-based", "details": "alone", "description": "as §2"}, "[18]": {"test": "Renal toxicity of Example 24 vs PMB after four doses in mouse", "assay_type": "in vivo, mouse", "details": "for Urine β-2 microglobulin: CD-1 mice, urine 24 h, normalized to urinary creatinine, mean", "description": "Immediately after the fourth dose mice were transferred to metabolic cages and urine collected for 24 h. for determination of urinary biomarkers. After urine collection mice were sacrificed for renal histopathology.\nThe urine biomarkers were normalized to urinary creatinine."}, "[19]": {"test_system": "E. coli, K. pneumoniae, P. aeruginosa, A. baumannii strains", "test": "Synergy with rifampicin across the MIC panel", "assay_type": "cell-based", "details": "also against strains with reduced susceptibility to polymyxins", "description": "as §2"}, "[20]": {"details": "cynomolgus monkey, in vivo, 4 mg/kg"}}, "note": "Values joined by “and” are separate entries in the source; they are usually repeats but may differ in a detail not shown here. Equal entries are not always repeated."}
{"substance": "Polymyxin B [reference compound]", "values": [{"measurement": "Cytotoxicity (measured IC50 relative to that recorded for Polymyxin B)", "setting": "[1]", "result": 1.0}, {"measurement": "Drug Level in Kidney 4 h", "setting": "[2]", "result": 128, "unit": "µg/g kidney"}, {"measurement": "Drug Level in Kidney 16 h", "setting": "[2]", "result": 18, "unit": "µg/g kidney"}, {"measurement": "Kidney histopathology: signs of degeneration or regeneration", "setting": "[3]", "result": "all 6 animals treated with PMB showed minimal tubular regeneration"}, {"measurement": "Kidney microscopy: tubular degeneration", "setting": "[4]; Cynomolgus monkey (n=3), 4 mg/kg/dose, 3 times per day, 7 days", "result": "2 showed mild tubular degeneration and 1 minimal"}, {"measurement": "AUC0-8 hr, one dosing cycle on day 7", "setting": "[4]; [20]", "result": 117, "unit": "µg·h/mL"}, {"measurement": "BUN elevation compared to control animals", "setting": "[4]; [20]", "result": 76, "unit": "%"}, {"measurement": "Log drop in cfu Compared to Vehicle Control", "setting": "[5]", "result": "4.2 and 4.1"}, {"measurement": "Log drop in cfu Compared to Vehicle Control", "setting": "[6]; CD-1 mice lung, SC 20 mg/kg at 2, 6, 10 h, counts at 16 h, PMB (20 mg/kg) in parentheses", "result": 0}, {"measurement": "Efficacy in the model (in words)", "setting": "[6]; neutropenic murine lung model, A. baumannii NCTC13301, 20 mg/kg SC (PMB: maximum tolerated dose)", "result": "not efficacious"}, {"measurement": "Log drop in cfu Compared to Vehicle Control", "setting": "[7]; SC 5 mg/kg at 2, 6, 10 h", "result": "0 (0)"}, {"measurement": "Log drop in cfu Compared to Vehicle Control", "setting": "[7]; SC 7.5 mg/kg at 2, 6, 10 h", "result": 1.0}, {"measurement": "Log drop in cfu Compared to Vehicle Control", "setting": "[7]; SC 10 mg/kg at 2, 6, 10 h", "result": 0.7}, {"measurement": "MIC A. baumannii IHMA 517303", "setting": "[8]", "result": ">64", "unit": "µg/mL"}, {"measurement": "MIC A. baumannii IHMA 851735", "setting": "[9]", "result": 8, "unit": "µg/mL"}, {"measurement": "MIC A. baumannii NCTC 13301", "setting": "[10]", "result": 0.25, "unit": "µg/mL"}, {"measurement": "MIC E. coli CDF-1", "setting": "[11]", "result": 4, "unit": "µg/mL"}, {"measurement": "MIC E. coli IHMA 940398", "setting": "[12]", "result": 16, "unit": "µg/mL"}, {"measurement": "MIC K. pneumoniae IHMA 520329", "setting": "[13]", "result": 64, "unit": "µg/mL"}, {"measurement": "MIC K. pneumoniae IHMA 580884", "setting": "[14]", "result": 8, "unit": "µg/mL"}, {"measurement": "MIC P. aeruginosa ATCC 27853", "setting": "[15]", "result": 0.5, "unit": "µg/mL"}, {"measurement": "MIC P. aeruginosa IHMA 517175", "setting": "[16]", "result": 8, "unit": "µg/mL"}, {"measurement": "MIC P. aeruginosa IHMA 644636", "setting": "[17]", "result": 32, "unit": "µg/mL"}, {"measurement": "Tubular Degeneration/necrosis (histopathology, animals affected)", "setting": "[18]; CD-1 mice (n=5), sc 25 mg/kg four times at 8 h intervals", "result": "5/5 (2 min/"}, {"measurement": "Urine β-2 microglobulin", "setting": "[18]; sc 25 mg/kg four times at 8 h intervals", "result": 43.83}, {"measurement": "Urine β-2 microglobulin", "setting": "[18]; sc […] four times at 8 h intervals", "result": 3.43}, {"measurement": "Basophilic Tubules (cortex) (animals affected)", "setting": "[18]; mouse, in vivo, sc, 25 mg/kg", "result": "5/5 (1 min/"}, {"measurement": "Mitotic Figures increased (animals affected)", "setting": "[18]; mouse, in vivo, sc, 25 mg/kg", "result": "3/5"}, {"measurement": "Urine Albumin", "setting": "[18]; mouse, in vivo, sc, 25 mg/kg", "result": 7.73}, {"measurement": "Urine Cystatin C", "setting": "[18]; mouse, in vivo, sc, 25 mg/kg", "result": 44.51}, {"measurement": "Urine Kim-1", "setting": "[18]; mouse, in vivo, sc, 25 mg/kg", "result": "3,446.42"}, {"measurement": "Urine NGAL", "setting": "[18]; mouse, in vivo, sc, 25 mg/kg", "result": 4.37}, {"measurement": "Synergy with rifampicin (in words)", "setting": "[19]", "result": "strong synergy with rifampicin"}]}
